Laboratory results from US20180362485A1, “N-HYDROXYFORMAMIDE COMPOUNDS AND COMPOSITIONS COMPRISING THEM FOR USE AS BMP l, TLL1 AND/OR TLL2 INHIBITORS” (GlaxoSmithKline Intellectual Property (No. 2) Limited, priority 2015, published 2018).

Target: T1, human TLL2 (Homo sapiens, UniProt Q9Y6L7)
T1 construct: amino acids 26-1015 of human TLL2 (NM_012465); made in house
T1 sequence (Q9Y6L7 150-1015): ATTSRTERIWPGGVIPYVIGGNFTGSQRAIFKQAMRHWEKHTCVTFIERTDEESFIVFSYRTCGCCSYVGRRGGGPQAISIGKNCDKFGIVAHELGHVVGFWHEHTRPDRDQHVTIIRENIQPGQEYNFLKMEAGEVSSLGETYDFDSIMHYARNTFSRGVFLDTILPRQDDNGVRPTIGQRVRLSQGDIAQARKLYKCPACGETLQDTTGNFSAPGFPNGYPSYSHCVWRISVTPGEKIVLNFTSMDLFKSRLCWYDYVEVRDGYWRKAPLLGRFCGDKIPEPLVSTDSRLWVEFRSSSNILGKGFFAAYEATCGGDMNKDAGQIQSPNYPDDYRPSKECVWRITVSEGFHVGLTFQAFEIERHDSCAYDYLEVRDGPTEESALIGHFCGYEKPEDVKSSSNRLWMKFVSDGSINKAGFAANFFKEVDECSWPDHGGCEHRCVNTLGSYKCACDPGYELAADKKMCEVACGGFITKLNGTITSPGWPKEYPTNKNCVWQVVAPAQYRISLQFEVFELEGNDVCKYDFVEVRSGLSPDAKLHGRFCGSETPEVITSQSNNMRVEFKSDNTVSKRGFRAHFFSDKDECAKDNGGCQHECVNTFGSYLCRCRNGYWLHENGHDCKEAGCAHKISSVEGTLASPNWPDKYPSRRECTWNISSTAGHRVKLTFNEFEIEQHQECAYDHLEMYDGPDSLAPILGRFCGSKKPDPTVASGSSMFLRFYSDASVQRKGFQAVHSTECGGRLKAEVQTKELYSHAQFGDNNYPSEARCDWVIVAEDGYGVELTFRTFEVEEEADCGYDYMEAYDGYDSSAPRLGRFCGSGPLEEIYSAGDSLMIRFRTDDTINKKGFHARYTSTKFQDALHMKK
Assay: Enzyme inhibition assay for human TLL2
Type: biochemical
Conditions: 18 nM TLL2, 5 μM promyostatin peptide substrate; read-out: pIC50, TLL2 enzyme inhibition assay (converted)
Text: Buffer components are purchased from Sigma-Aldrich (St. Louis, Mo.) or an equivalent supplier. The promyostatin peptide substrate is custom synthesized by American Peptide Company (Sunnyvale, Calif.) using the myostatin protein sequence (Uniprot accession number 014793) surrounding the cleavage site reviewed in Hopkins, D. R., et al., 2007 Matrix Biology, 26, 508-523. The procollagen peptide substrate used in the high enzyme BMP1 cleavage assay is custom synthesized by 21st Century Biochemicals (Marlboro, Mass.) using the procollagen Iα protein sequence (Uniprot accession number P02452) surrounding the cleavage site reviewed in Hopkins, D. R., et al., 2007 Matrix Biology, 26, 508-523.
The DNA sequence encoding amino acids 26-1015 of human TLL2 (NM_012465) is PCR amplified from DNA template with the human RAGE signal sequence at the N-terminus and Avi-6×His epitope tags at the C-terminus ([…]). […]
Inhibition of human TLL1 and TLL2 recombinant enzymes is measured in 10 ul endpoint assays in 384-well format using the same promyostatin peptide substrate employed in the above Enzyme Inhibition Assay for human BMP1. […] TLL1 and TLL2 reactions are quenched with 5 μl of 0.5 M EDTA and plates are read on a ViewLux (Perkin Elmer) multilabel plate reader using a 480 nm excitation filter and 540 nm emission filter. […]

Work on `CCCCC[C@@H](C(=O)NCNC(=O)c1ccc(-c2ccc(C(=O)O)cc2)o1)[C@@H](CC)N(O)C=O` [WO2015/104684 Example 71, 4-(5-((((R)-2-((R)-1-(N-hydroxyformamido)propyl)heptanamido)methyl)carbamoyl)furan-2-yl)benzoic acid] yielded an IC50 of less than 794 nM.
